Reference: patent US8653054B2, “2-(N-substituted piperazinyl) steroid derivatives” (Universite Laval, priority 2008, dated 2014)
Like-named read-outs stand apart in the source and are kept apart here.

Experiments:
[1] = tested on: MCF-7 breast cancer cells; test: Cell proliferation assay (MTS) on MCF-7 breast cancer cells; assay type: cell-based, human; conditions: Table 3, 3 days incubation
Protocol: MCF-7 breast cancer cells were maintained in Dulbecco's Modified Eagle's Medium (DMEM) containing a nutriment mixture F-12 ham (DME-F12) (Sigma, Saint Louis, USA) supplemented with 5% (v/v) fetal bovine serum (FBS), L-glutamine ([…]), penicillin (100 IU/ml), streptomycin sulphate (50 μg/ml) and estradiol (1 nM). For the assay, DME-F12 was supplemented with 5% (v/v) charcoal-strippes FBS, insulin (50 ng/ml) and the same concentrations of antibiotics as above.

[2] = tested on: MDA-MB-231 (ER−) breast cancer cells; test: Cell proliferation assay (MTS) on MDA-MB-231 (ER−) breast cancer cells; assay type: cell-based; conditions: Table 3, 3 days incubation
[3] = tested on: Shionogi mammary carcinoma cells (AR+); test: Cell proliferation assay (MTS) on Shionogi mammary carcinoma cells; assay type: cell-based; conditions: Table 3, 3 days incubation
Protocol: Shionogi mammary carcinoma cells bearing androgen-sensitive (AR+) were routinely grown in Eagle's Minimal Essential Medium (MEM) (Sigma, Saint Louis, USA) supplemented with 5% (v/v) fetal bovine serum (FBS), penicillin (100 IU/ml), streptomycin sulphate (50 μg/ml), 1% (v/v) non-essential amino acids and dihydrotestosterone DHT (10^−8 M). For the assay, MEM devoid of the pH indicator phenol red was supplemented with 2% (v/v) charcoal-strippes FBS and the same concentrations of antibiotics and non-essential amino acids as above.

[4] = tested on: LNCaP prostate cancer cells; test: Cell proliferation assay (MTS) on LNCaP prostate cancer cells; assay type: cell-based; conditions: Table 3, 3 days incubation
Protocol: (§1) The cell proliferation assay was performed using 3-(4,5-dimethylthiazol-2-yl)-5-(3-carboxymethoxyphenyl)2-(4-sulfophenyl)-2H-tetrazolium (MTS) (Cell Titer 96 Aqueous, Promega, USA). MTS is converted into water-soluble colored formazan by dehydrogenase enzymes present in metabolically active cells, which allows the measurement of the number of viable cells.
(§2) The cells were incubated at 37° C. and 5% CO2. The steroid derivatives of the present disclosure were dissolved in ethanol to prepare the 1×10^−2 M stock solutions. The stock solutions and doxorubicin (DOX) (Novapharm, Toronto, Canada) were diluted at multiple concentrations with culture media, added to each well, as indicated, and incubated for 3 days. Following each treatment, 20 μl MTS was added to each well and the mix was incubated for 4 h.

[5] = tested on: PC-3 (AR−) prostate cancer cells; test: Cell proliferation assay (MTS) on PC-3 (AR−) prostate cancer cells; assay type: cell-based; conditions: Table 3, 3 days incubation
Protocol: (§3) All of the following cell lines were maintained under a CO2 humidified atmosphere at 37° C. The culture media were changed every 3-4 days and the cells were split once a week.
(§4) For the assay, the culture medium was the same.
as §1, §2

[6] = tested on: OVCAR-3 ovarian cancer cells; test: Cell proliferation assay (MTS) on OVCAR-3 ovarian cancer cells; assay type: cell-based; conditions: Table 3; 3 days incubation, MTS
From the text: For the assay, the culture medium was the same, but without estradiol.

[7] = tested on: HL-60 acute promyelocytic leukemia cells; test: Cell proliferation assay (MTS) on HL-60 leukemia cells; assay type: cell-based, human;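 note: cells exposed to serially diluted compound for 3 days at 37 °C, then viable cell number read via MTS conversion to coloured formazan by metabolically active cells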
Protocol: as §3, §4, §1, §2

[8] = tested on: K-562 leukemia cells; test: Cell proliferation assay (MTS) on K-562 leukemia cells; assay type: cell-based; conditions: Table 3, 3 days incubation
Protocol: as §3, §4, §1, §2

[9] = tested on: WI-38 diploid fibroblasts; test: Cell proliferation assay (MTS) on WI-38 normal fibroblasts; assay type: cell-based, human; conditions: Table 3, normal cells, 3 days incubation
Protocol: WI-38 diploid fibroblasts derived from embryonic human lung were cultured in MEM (devoid of the pH indicator phenol red) supplemented with 10% (v/v) FBS, L-glutamine (2 nM), penicillin (100 IU/ml), streptomycin sulphate (50 μg/ml), sodium pyruvate (1 mM) and non-essential amino acids (0.1 mM).
as §1, §2

[10] = tested on: human MCF-7 breast cancer xenografts; test: Growth of human MCF-7 breast cancer xenografts in nude mice; assay type: in vivo; conditions: OVX nude mice, 60 mg/kg s.c. 3 times a week, E2-stimulated; FIG. 1
Protocol: MCF-7 breast cancer cells were obtained from the ATCC (Rockville, Md.) and were propagated in Dubelcco's Modified Eagle's Medium nutrient mixture F-12 ham (DME-F12) medium supplemented with 5% FBS, glutamine (2 mM), penicillin (100 IU/mL), streptomycin (100 μg/mL) and estradiol (1 nM). These cells were used to induce tumors in homozygous female nu/nu Brathymic mice (28-42 days old) that were obtained from Charles River (Saint-Constant, Canada). Bilateral ovariectomy was performed under isoflurane-induced anesthesia. At the time of ovariectomy, an implant of estradiol (E2) was inserted s.c. to stimulate initial tumor growth. E2 implants were prepared in 1 cm long Silastic tubing (inside diameter 0.062 inch, outside diameter 0.095 inch) containing 5 mm of 1:8 (w/w) mixture of E2 and cholesterol. One week after ovariectomy, 4.1×10^6 MCF-7 cells were inoculated s.c. in 0.1 mL of medium growth+30% Matrigel on both flanks of each ovariectomized (OVX) mouse through a 2.5 cm long 22-gauge needle. After approximately 5 weeks, the mice were randomly assigned to 2 groups according to tumor size. […] The size of tumors was measured by two perpendicular diameters and tumor area (mm^2) was calculated using the formula L/2×W/2×π. The area measured on the first day of treatment was taken as 100% (FIG. 1). […]

[11] = tested on: normal lymphocytes from peripheral blood; test: Cell proliferation assay (MTS) on normal lymphocytes
Protocol: as §3, §4, §1, §2

[12] = Plasmatic concentration (AUC) of aminosteroids after a single subcutaneous injection in rat; conditions: 2.3 mg/kg
Protocol: Animals: Six to seven week-old male Sprague-Dawley rats (Crl:CD®(SD)Br VAF/Plus™) weighing approximately 220 g were obtained from Charles-River, Inc (St-Constant, Qc., Canada). The animals were acclimatized to environmental conditions (temperature: 22±3° C.; humidity: 50±20%; 12-h light/12-h dark cycles, lights on at 07:15 h) for at least 5 days before starting the experiment. The animals were housed three per cage and were allowed free access to water and a certified commercial rodent food (Rodent Diet #T.2018.15, Harlan Teklad, Madison, Wis., U.S.A.) and were randomized according to their body weight.
Assay: A pharmacokinetic study was carried out following one subcutaneous (s.c.) injection of the aminosteroids at one concentration (2.3 mg/kg of body weight in 0.5 mL of vehicle fluid). The compound was first dissolved in Ethanol (EtOH) followed by the addition of propylene glycol such that a final concentration of EtOH of 8% was obtained. During this experiment, the rats were housed individually and were fasted for 8h before injection of the aminosteroid. Blood samples for determination of aminosteroid plasma concentration were collected at the jugular vein (0.4 mL by animal) at target intervals of 3, 7, 12 and 24 h (or 3 and 12 h) post-dose from six rats per time point (Tables 5, 6 and 7). After the collect at 7 h, a replacement fluid (0.9% sodium chloride injection USP) was injected in the rat. Blood samples were collected in Microvette potassium-EDTA (ethylenediamine tetra-acetic acid)-coated tubes (Sarstedt, Aktiengesellchaft & Co, Germany) and centrifuged at 3200 rpm for 10 minutes at 4° C. The plasma was collected and stored at −80° C. until analyzed by liquid chromatography/mass spectrometry/mass spectrometry (LC/MS/MS) analysis.
Aminosteroid measurement: The concentration of the aminosteroid was determined by LC/MS/MS analysis using a procedure developed at the CHUQ (CHUL)—Research Center (Québec, Qc, Canada). Briefly, for extraction from serum, 100 νL, of the serum sample was transferred to individual tubes and 600 μL of ammonium acetate (1 mM) was added. A methanolic solution (50 μL) containing a steroidal internal standard was then added to each tube. Samples were transferred on Strata-X SPE columns (Phenomenex, Torrance, Calif., USA), which have been conditioned with 2 mL of MeOH and 2 mL of water. Each column was washed with 2 mL of MeOH:water (10:90, v/v). The aminosteroid was then eluted with 5 mL of MeOH containing 5 mM ammonium acetate. The MeOH was evaporated at 45° C. under inert atmosphere and the dried residue dissolved in 100 μL of MeOH:water (85:15, v/v). […] The inhibitor was detected using an API 3000 mass spectrometer, equipped with TurbolonSpray (Applied Biosystems, Canada). ESI in positive ion mode was used.

## C[C@]12C[C@H](N3CCN(C(=O)[C@@H]4CCCN4C(=O)c4cccc5ccccc45)CC3)[C@@H](O)C[C@@H]1CC[C@@H]1[C@@H]2CC[C@]2(C)[C@@H](O)CC[C@@H]12 [PC-37]
[1]
  IC50: 500 nM
[2]
  IC50: > 10 µM
[3]
  IC50: 200 nM
[4]
  IC50: 1500 nM
[5]
  IC50: 6.5 µM
[6]
  IC50: 1400 nM
[7]; Table 3, 3 days incubation, MTS, read-out: IC50 HL-60
  IC50: 2500 nM
[7]; Table 4, HL-60 cancer cell line, read-out: IC50
  IC50: 1900 nM
[7]; Table 6, HL-60 cancer cell line, read-out: IC50 (HL-60)
  IC50: 1900 nM
[8]
  IC50: 10.6 µM
[9]
  IC50: > 10 µM
[10]
  growth of human MCF-7 breast cancer xenografts: reduce the growth
[11]; even at high concentrations (>10 μM)
  toxicity on normal healthy lymphocytes: little or no toxicity
[11]; read-out: IC50 Lymph Norm., Table 3, normal lymphocytes, 3 days incubation, MTS
  IC50: 36 µM
[12]; Table 5, subcutaneous one time
  AUC (7 h): 337 ng·h/mL
  AUC (24 h): 552 ng·h/mL
  AUC(12 h): 462 ng·h/mL
[12]; Table 6, subcutaneous one time
  AUC (0-3 h): 97 ng·h/mL
  AUC (0-12 h): 429 ng·h/mL
